Data as given in PMC6746701, “A phyB-PIF1-SPA1 kinase regulatory complex promotes photomorphogenesis in Arabidopsis” (Nature Communications, 2019).

T1: full-length SPA1 (Arabidopsis thaliana, UniProt Q9SYX2)
T1 construct: full length, strep-tagged (3x Flag also cloned), Pichia pastoris GS115, tags kept
T1 sequence (Q9SYX2 1-1029): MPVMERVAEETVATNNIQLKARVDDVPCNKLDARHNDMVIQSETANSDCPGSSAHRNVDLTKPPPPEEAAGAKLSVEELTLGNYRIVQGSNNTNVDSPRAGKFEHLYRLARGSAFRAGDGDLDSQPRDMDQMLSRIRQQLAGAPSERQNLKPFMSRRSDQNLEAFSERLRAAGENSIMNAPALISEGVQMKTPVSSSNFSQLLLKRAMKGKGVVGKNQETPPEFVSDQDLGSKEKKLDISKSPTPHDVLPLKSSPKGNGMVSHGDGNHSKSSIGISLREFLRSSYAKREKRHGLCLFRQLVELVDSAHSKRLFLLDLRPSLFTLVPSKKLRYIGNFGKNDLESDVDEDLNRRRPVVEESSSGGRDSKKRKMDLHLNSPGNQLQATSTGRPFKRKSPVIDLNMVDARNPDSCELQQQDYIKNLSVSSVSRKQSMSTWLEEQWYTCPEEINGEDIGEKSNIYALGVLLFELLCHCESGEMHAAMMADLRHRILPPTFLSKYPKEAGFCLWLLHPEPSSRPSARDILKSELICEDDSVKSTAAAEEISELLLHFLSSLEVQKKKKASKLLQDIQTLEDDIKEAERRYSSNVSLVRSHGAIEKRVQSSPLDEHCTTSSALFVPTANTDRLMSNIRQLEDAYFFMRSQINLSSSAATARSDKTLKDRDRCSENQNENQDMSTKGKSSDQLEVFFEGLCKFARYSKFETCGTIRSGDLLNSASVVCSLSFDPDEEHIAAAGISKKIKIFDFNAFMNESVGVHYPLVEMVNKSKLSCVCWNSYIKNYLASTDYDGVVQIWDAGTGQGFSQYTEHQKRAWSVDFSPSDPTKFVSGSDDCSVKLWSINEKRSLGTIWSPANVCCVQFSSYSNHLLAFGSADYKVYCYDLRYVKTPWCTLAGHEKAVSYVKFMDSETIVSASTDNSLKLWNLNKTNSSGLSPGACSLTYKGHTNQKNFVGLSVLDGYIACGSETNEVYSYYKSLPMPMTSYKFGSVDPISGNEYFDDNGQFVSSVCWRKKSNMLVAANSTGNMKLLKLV

T2: phyB-GFP ΔC purified from yeast (Saccharomyces cerevisiae) (Arabidopsis, UniProt P14713 1-1092, phycocyanobilin (PCB) chromophore assembled)
T2 construct: phytochrome B (phyB), Arabidopsis, residues 1-1092 (lacks the last 80 amino acids); The methods describe the yeast purification only for the full-length protein; also called phyB ΔC-GFP; source: Saccharomyces cerevisiae, purified; not shown: GFP, C-terminal, kept
T2 sequence (looked up): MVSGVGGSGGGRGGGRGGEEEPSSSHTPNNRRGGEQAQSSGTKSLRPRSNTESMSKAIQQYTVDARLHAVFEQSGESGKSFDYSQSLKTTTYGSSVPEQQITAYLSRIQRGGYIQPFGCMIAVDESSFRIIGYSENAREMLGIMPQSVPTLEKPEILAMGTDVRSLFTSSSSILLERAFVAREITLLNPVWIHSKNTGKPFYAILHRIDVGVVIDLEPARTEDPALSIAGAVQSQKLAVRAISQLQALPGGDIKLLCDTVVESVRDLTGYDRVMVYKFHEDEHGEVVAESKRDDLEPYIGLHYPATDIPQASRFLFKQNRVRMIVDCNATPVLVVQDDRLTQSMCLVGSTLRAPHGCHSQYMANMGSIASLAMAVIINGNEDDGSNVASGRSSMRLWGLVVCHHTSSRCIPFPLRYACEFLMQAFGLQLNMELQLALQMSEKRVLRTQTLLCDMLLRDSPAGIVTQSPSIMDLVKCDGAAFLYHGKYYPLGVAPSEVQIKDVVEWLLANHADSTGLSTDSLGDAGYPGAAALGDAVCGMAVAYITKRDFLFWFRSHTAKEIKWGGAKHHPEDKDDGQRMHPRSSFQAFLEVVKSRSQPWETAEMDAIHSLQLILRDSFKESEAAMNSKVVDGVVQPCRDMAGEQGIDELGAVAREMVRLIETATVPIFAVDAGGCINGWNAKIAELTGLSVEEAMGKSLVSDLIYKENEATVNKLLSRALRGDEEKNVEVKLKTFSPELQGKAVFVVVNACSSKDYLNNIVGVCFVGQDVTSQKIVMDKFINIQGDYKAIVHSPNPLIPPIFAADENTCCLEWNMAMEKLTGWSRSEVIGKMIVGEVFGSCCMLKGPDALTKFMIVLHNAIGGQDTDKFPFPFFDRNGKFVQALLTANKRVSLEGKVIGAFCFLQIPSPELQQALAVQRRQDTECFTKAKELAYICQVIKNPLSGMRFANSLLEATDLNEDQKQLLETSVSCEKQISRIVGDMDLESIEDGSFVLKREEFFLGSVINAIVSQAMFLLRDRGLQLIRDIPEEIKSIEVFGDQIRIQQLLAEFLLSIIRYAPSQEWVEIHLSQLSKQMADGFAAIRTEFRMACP


Assays:
full-length SPA1 = molecular target: T1, full-length SPA1; test: in vitro kinase assay, autoradiogram; type: biochemical; conditions: GST-PIF1 as co-substrate, ATP 0.004-2.5 mM, 10 mM MgCl2, pH 7.5, 28 °C; labelled compound (gamma-32P)
[1] = molecular target: T2, phyB-GFP ΔC purified from yeast …; test: pull-down; in vitro: phytochromes purified from yeast (S. cerevisiae) and GST-PIF1; light-dependent; conditions: both partners purified

binding result [1]	Molecule	in vitro kinase assay, autoradiogram (full-length SPA1)
–	Nc1ncnc2c1ncn2[C@@H]1O[C@H](COP(=O)(O)OP(=O)(O)OP(=O)(O)O)[C@@H](O)[C@H]1O [ATP]	SPA1 also phosphorylated PIF1 in an ATP concentration- and time-dependent manner
binds	GST-PIF1-strep (natural protein, Arabidopsis, UniProt Q8GZM7 1-478, looked up, source: E. coli BL21(DE3), purified (Strep-Tactin Sepharose); not shown: GST, N-terminal, kept; Strep tag, C-terminal, kept) MHHFVPDFDTDDDYVNNHNSSLNHLPRKSITTMGEDDDLMELLWQNGQVVVQNQRLHTKKPSSSPPKLLPSMDPQQQPSSDQNLFIQEDEMTSWLHYPLRDDDFCSDLLFSAAPTATATATVSQVTAARPPVSSTNESRPPVRNFMNFSRLRGDFNNGRGGESGPLLSKAVVRESTQVSPSATPSAAASESGLTRRTDGTDSSAVAGGGAYNRKGKAVAMTAPAIEITGTSSSVVSKSEIEPEKTNVDDRKRKEREATTTDETESRSEETKQARVSTTSTKRSRAAEVHNLSERKRRDRINERMKALQELIPRCNKSDKASMLDEAIEYMKSLQLQIQMMSMGCGMMPMMYPGMQQYMPHMAMGMGMNQPIPPPSFMPFPNMLAAQRPLPTQTHMAGSGPQYPVHASDPSRVFVPNQQYDPTSGQPQYPAGYTDPYQQFRGLHPTQPPQFQNQATSYPSSSRVSSSKESEDHGNHTTG	–
